{"source": "patent US6642177B1", "about": "“Sarcoslnates as glufosinate adjuvants” (Hampshire Chemical Corp., priority 1998, dated 2003)", "assay_type_in_all_cases": "in vivo", "key": {"[1]": {"tested_on": "Plant Species (Setia, Porol, Amabl, Polpy, Sotlu); nuisance weeds", "assay": "% control over the five plant species (total, average) 27 days after treatment", "settings": "rate 0.32 lbs. ai/A"}, "[2]": {"tested_on": "Amabl = Pigweed, Prostrate - Amaranthus blitoides", "assay": "% control of prostrate pigweed 27 days after treatment", "settings": "rate 0.32 lbs. ai/A"}, "[3]": {"tested_on": "Polpy = Smartweed, Pennsylvania - Polygonium pensylvanicum", "assay": "% control of Pennsylvania smartweed 27 days after treatment", "settings": "rate 0.32 lbs. ai/A"}, "[4]": {"tested_on": "glufosinate tolerant field corn variety Pioneer 34A55", "assay": "Phytotoxicity rating on glufosinate tolerant field corn (chlorosis, necrosis, abnormal growth)", "settings": "1.46 Lbs ai/acre, 10 ml into the whorl", "experimental": "Seeds were germinated in 4 inch pots and maintained for one month with regular watering and temperatures to simulate field conditions. […] Each treatment was replicated four times in a randomized complete block design. […] The volume of 10 ml was selected to fill the whorl of the largest plant in the study, all others were filled to running over.\nAn application volume of 15 gal/acre was used to determine the mix concentration used.\nThe treatments were evaluated for phytotoxicity in the form of chlorosis, necrosis and abnormal growth by visually inspecting each plant. When damage was present, each plant was given a damage rating from 0 to 10 with 0 indicating no effect and 10 indicating death."}, "[5]": {"tested_on": "Setiu + Foxtail, Yellow - Sataria Leutescens", "assay": "% control of yellow foxtail 27 days after treatment", "settings": "rate 0.32 lbs. ai/A"}, "[6]": {"tested_on": "Porol = Purslane, Common - Portulaca oleraca", "assay": "% control of common purslane 27 days after treatment", "settings": "rate 0.32 lbs. ai/A"}, "[7]": {"tested_on": "Setia = Foxtail., Giant - setaria", "assay": "% control of giant foxtail 27 days after treatment", "settings": "rate 0.32 lbs. ai/A"}}, "data": [{"substance": "2-amino-4-(hydroxymethyl phosphinyl) butanoic acid [Glufosinate]", "values": [{"measurement": "% Control 27 Days After Treatment, Average", "setting": "[1]; average over five plant species", "value": 71.00, "unit": "%"}, {"measurement": "% Control 27 Days After Treatment, Total", "setting": "[1]; sum over five plant species", "value": 355.00, "unit": "%"}, {"measurement": "% Control 27 Days After Treatment, Amabl", "setting": "[2]", "value": 73.33, "unit": "%"}, {"measurement": "% Control 27 Days After Treatment, Polpy", "setting": "[3]", "value": 81.67, "unit": "%"}, {"measurement": "Ratings 20 days after treatment (damage rating 0 to 10, 0 no effect, 10 death)", "setting": "[4]", "value": 0.8, "unit": "b"}, {"measurement": "% Control 27 Days After Treatment, Sotlu", "setting": "[5]", "value": 60.00, "unit": "%"}, {"measurement": "% Control 27 Days After Treatment, Porol", "setting": "[6]", "value": 78.33, "unit": "%"}, {"measurement": "% Control 27 Days After Treatment, Setia", "setting": "[7]", "value": 61.67, "unit": "%"}]}]}
